{"source": "patent US20180207249A1", "about": "“METHOD AND VACCINE COMPRISING COPOLYMER 1 FOR TREATMENT OF PSYCHIATRIC DISORDERS” (YEDA RESEARCH AND DEVELOPMENT CO. LTD., priority 2003, published 2018)", "key": {"[1]": {"system": "C57BL/6J mice injected with MK-801 or AMPH", "test": "Morris water maze (MWM) spatial learning/memory task after psychotomimetic drug", "assay_type": "in vivo, mouse", "conditions": "C57BL/6J mice immunized 1 week before MK-801", "procedure": "(iii) Immunization. Each animal was injected with a total of 100 μg of Cop-1 emulsified in an equal volume of complete Freund's adjuvant (CPA) containing 5 mg/ml of Mycobacteria H37 RA (Difco). The emulsion, in a total volume of 0.1 mL, was injected into the flank 1 week before the mouse was first injected with a psychotomimetic drug. Control mice were injected with an equal volume of phosphate-buffered saline (PBS) emulsified in CFA.\n(vi) Drug solutions. Fresh solutions of dizocilpine maleate (MK-801; Sigma-Aidrich) were prepared in physiological saline (0.9% NaCl in sterile distilled water) for each batch of mice. Physiological saline was also used as a vehicle for D-amphetamine sulfate (AMPH: Sigma). MK-801. (0.1 mg/kg) or AMPH (2.5 mg/kg) or sahne was injected i.p., in a total volume of 5 ml per kg of body weight. Mice were injected with MK-801, AMPH, or vehicle 15 min before being subjected to behavioral tests.\n(vii) Morris water maze (MWM) behavioral test. Spatial learning/memory was assessed by performance on a hippocampal-dependent visuospatial learning task in the MWM. Mice were given four trials per day, for four consecutive days, to find a hidden platform located 1.5 cm below the water surface in a pool 1.4 m in diameter. Within the testing room only distal visuo-spatial cues were available to the mice for location of the submerged platform. The escape latency, i.e., the time required by the mouse to find and climb onto the platform, was recorded for up to 60 s. Each mouse was allowed to remain on the platform for 30 s, and was then moved from the maze to its home cage. […] The inter-trial interval was 30 s. On day 5, the platform was removed from the pool, and each mouse was tested by a probe trial for 60 s. On days 6-7 the platform was placed at the opposite, location, and the mouse was retrained in four sessions. Data were recorded by using an EthoVision automated tracking system (Noldus Information Technology, Wageningen, The Netherlands). […]"}, "[2]": {"system": "Treg (CD4+CD25+) co-cultured with effector T cells (Teff)", "test": "Inhibition assay (co-culturing of Teff with Treg), [3H]-thymidine incorporation", "assay_type": "cell-based, mice", "conditions": "activated Treg incubated 2 h with Cop-1 20 μg/ml, Cop-1 20 μg/ml also added to co-culture", "procedure": "(xviii) Purification of CB4^+CB25^+ and CD4^+CB25^− T cells. Lymph nodes were harvested and mashed. T cells were enriched by negative selection and purified on CD3-cell columns (MTCC-25; R&D Systems). The enriched T cells were incubated with and-CD8 raicrobeads (Miltenyi Biotec, Bergiseh Gladbach, Germany), and negatively selected CD4^+ T cells were incubated with PE-conjugated anti-CD25 (30 μg/10^8 cells) in PBS/2% fetal calf serum. They were then washed and incubated with anti-PE microbeads (Miltenyi Biotec) and subjected to magnetic separation with AutoMACS (Miltenyi Biotec). The retained cells were eluted from the column as purified CD4^+CD25^+ cells. The negative fraction consisted of CD4^+CD25^− T cells. Cell purity was chceked by FACSort (Becton-Dickinson) and typically ranged from 88% to 95%. Purified cells were cultured in 24-well plates (1 ml).\n(xix) Activation of CB4^+CD25^+ regulatory T cells. […]\n(xx) Inhibition assay (co-culturing of Teff with Treg). […] After the cells were harvested, their analyzed [^3H]-thymidine content was analyzed by the use of a […].\nNaïve Teff cells (50×10^3 cells/well) were co-cultured with decreasing numbers ([…] cells/well) of Treg cells that have been activated for 24 h with anti-CD3 and mrIL 2. […] Recorded values are from one representative experiment out of three and are expressed as means±SD of 4 replicates."}, "[3]": {"system": "rats exposed to psychotomimetic drugs", "test": "Vaccination after exposure to psychotomimetic drugs", "assay_type": "in vivo", "conditions": "vaccination after drug exposure, not shown"}}}
{"substance": "Copolymer 1 [Cop-1]", "values": [{"measurement": "MWM extinction phase, time spent in training quadrant after MK-801", "setting": "[1]", "result": "behaved similarly to WT mice"}, {"measurement": "Treg-mediated suppression of Teff proliferation", "setting": "[2]", "result": "alleviated the suppression of Teff compared to the control"}, {"measurement": "Effect of vaccination given after psychotomimetic drugs", "setting": "[3]", "result": "beneficial"}]}
